Measurements from patent US9132108B2, “Pharmaceutical composition for ameliorating and/or preventing leptin resistance, and use thereof” (HIROSHIMA UNIVERSITY, priority 2009, dated 2015).

Experiments:
[1] = system: mice given high-fat diet for 6 months (leptin resistance); test: Visceral fat of leptin-resistant mice, therapeutic effect (Example 8); format: in vivo, mouse; conditions: 3 weeks after flurbiprofen administration, 3 mg/kg per day orally; vs control group; P<0.01
Source text: In Example 8, effectiveness of flurbiprofen in ameliorating leptin resistance was confirmed by measuring a change in body weight of mice as a reference index. Specifically, 4 weeks-old male mice (C57BL/6 Cr Slc) had been given high-fat diet for 6 months so that leptin resistance would be induced in the mice. Thereafter, the mice were divided into two groups (each consisting of 14 mice), and the mice of individual groups were given the following diets for 3 weeks. • Control group (Cont): normal diet (10 kcal % fat) only • Flurbiprofen-administered group (Ful): normal diet+flurbiprofen Flurbiprofen (F8514, produced by SIGMA) was diluted with drinking water so that the administration amount of flurbiprofen would be 3 mg/kg per day, and was orally administered to the mice in the form of drinking water. The rates of change in body weight of the mice of individual groups were measured with the date when administration of flurbiprofen started (0 week) as a reference. Further, the amount of visceral fat (g) was measured. The visceral fat was extracted from abdomens of the mice and wet weight thereof was measured. FIG. 14 is a graph showing the amount of visceral fat (g) of the mice of the control group and the mice of the flurbiprofen-administered group which had been given normal diet for 3 weeks. […]

[2] = system: GRP78 and CHOP; conditions: described in Patent Literature 1; cited from earlier work
[3] = system: plasma leptin levels; test: Plasma leptin levels by ELISA before and after fasting (Example 3); format: in vivo, mouse; conditions: Group 4 (high-fat diet+flurbiprofen) vs Group 2, approximately 10 mg/kg per day orally, 8 weeks
Protocol: 4 weeks-old male mice (C57BL/6 Cr Slc) had been given normal diet (10 kcal % fat, D12450B, produced by Research Diets, Inc.) or high-fat diet (60 kcal % fat, D12492, produced by Research Diets, Inc.). Flurbiprofen was diluted with drinking water so that the administration amount of flurbiprofen would be approximately 10 mg/kg per day, and was orally administered to the mice in the form of drinking water. Specifically, mice were divided into four groups each consisting of 7-8 mice. Mice of individual groups were given diets as follows. • Group 1: Normal diet (10 kcal % fat) only • Group 2: High-fat diet (60 kcal % fat) only • Group 3: Normal diet+flurbiprofen • Group 4: High-fat diet+flurbiprofen 20-25 μL of blood samples before or after fasting for 28-29.5 hours were obtained from mice via tail vein, which had been given high-fat diet or normal diet for 8 weeks. […] Plasma leptin levels in the supernatants obtained by the centrifugation were measured by ELISA. […] Values in the graph of (a) of FIG. 6 are averages of plasma leptin levels of mice of each group measured before fasting (± their standard deviations) (n=7-8 with respect to each group). Similarly, values in the graph of (b) of FIG. 6 are averages of plasma leptin levels of mice of each group measured after fasting (± their standard deviations) (n=7-8 with respect to each group). […]

[4] = system: mice; test: Body length of mice after flurbiprofen administration (Example 10); format: in vivo, mouse; conditions: flurbiprofen-administered group vs control group; 3 mg/kg per day orally, 3 weeks
Protocol: Similarly with Example 8, 4 weeks-old male mice (C57BL/6 Cr Slc) had been given high-fat diet for 6 months so that leptin resistance would be induced in the mice. Thereafter, the mice were divided into two groups (each consisting of 8 mice), and the mice of individual groups were given the following diets for 3 weeks. • Control group (Cont): normal diet (10 kcal % fat) only • Flurbiprofen-administered group (Ful): normal diet+flurbiprofen Flurbiprofen (F8514, produced by SIGMA) was diluted with drinking water so that the administration amount of flurbiprofen would be 3 mg/kg per day, and was orally administered to the mice in the form of drinking water. The result of measurement of body length of the mice, to which flurbiprofen had been administered for 3 weeks, is shown in FIG. 16. FIG. 16 is a graph showing the body length (cm) of the mice of the control group and the mice of the flurbiprofen-administered group which had been given normal diet for 3 weeks. Values in the graph of FIG. 16 are averages of body lengths (cm) of mice of each group (± their standard deviations) (n=8 with respect to each group). Further, statistic analysis was carried out using t-test.

[5] = system: blood glucose level; test: Glucose tolerance test after 8 weeks of diet (Example 4); format: in vivo, mouse; conditions: 10 mg/kg per day orally
Source text: In view of the above, Example 4 discussed whether it is possible to evaluate induction of leptin resistance by measuring a change in blood glucose level by the glucose tolerance test as a reference index. At the same time, Example 4 discussed whether administration of flurbiprofen can prevent induction of leptin resistance, by measuring a change in blood glucose level by the glucose tolerance test as a reference index. Specifically, 4 weeks-old mice (C57BL/6 Cr Slc) were divided into four groups each consisting of 14-16 mice. Mice of individual groups were given diets as follows for 8 weeks similarly with Example 3. • Group 1: Normal diet (10 kcal % fat) only • Group 2: High-fat diet (60 kcal % fat) only • Group 3: Normal diet+flurbiprofen • Group 4: High-fat diet+flurbiprofen Flurbiprofen (F8514, produced by SIGMA) was diluted with drinking water so that the administration amount of flurbiprofen would be 10 mg/kg per day, and was orally administered to the mice in the form of drinking water. […] In Example 4, mice were fasted overnight for 17 hours, and fasted blood glucose level (pre) was measured by Freestyle freedom (NIPRO CORPORATION, blood glucose self-monitoring system) at 10:00 a.m. […] Blood glucose level was measured by Freestyle freedom (NIPRO CORPORATION, blood glucose self-monitoring system) 30 minutes, 1 hour, and 2 hours after the administration. […]

In the case of `C[C@@H](C(=O)O)c1ccc(-c2ccccc2)c(F)c1` [flurbiprofen], the “amount of visceral fat” value [1] is given as “significantly decreased”, the “expression of GRP78 and CHOP induced by endoplasmic reticulum stress” value [2] is given as “prevented” and the plasma leptin levels [3] is given as “significantly lower plasma leptin levels”. For the same molecule, the body length [4] was “no significant difference in body length”, the “blood glucose level in glucose tolerance test” value ([5]; Group 3 (normal diet+flurbiprofen) vs Group 1 (normal diet)) was “no significant difference in blood glucose level” and the “blood glucose level in glucose tolerance test” value ([5]; Group 4 (high-fat diet+flurbiprofen), 1 hour after glucose 2 g/kg i.p., significant difference vs Group 2) was “rapidly decreased blood glucose level”.
